Measurements: patent publication US10179790B2 (THOMAS HELLEDAYS STIFTELSE FOR MEDICINSK FORSKNING, priority 2014, dated 2019)

Assays:
MTH1 = MTH1 (Homo sapiens, UniProt P36639); assay: MTH1 enzymatic assay and IC50 value determination (malachite green, 96- and 384-well format); type: biochemical; settings: hydrolysis of dGTP (100 μM), MTH1 6 nM, pyrophosphatase-coupled malachite green, 15 minutes at 22° C.
In short: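 MTH1 (6 nM) hydrolysed dGTP (100 μM) for 15 min at 22 °C in Tris-acetate buffer with Mg2+, DTT, Tween 20 and excess pyrophosphatase, 1% DMSO. Pi detected with malachite green at 630 nm. IC50 from nonlinear 4-parameter fit of 11–12-point dilution series.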

cancer cell = assay: Cell viability assay (resazurin); type: cell-based; settings: 72 h; 3 days with compound, resazurin fluorescence; cell line not named
In short: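 Cells in DMEM GlutaMAX or line-appropriate medium are exposed to compound for 3 days at 37 °C, 5% CO2. Viability is read as resazurin fluorescence (Ex544/Em590) after 2 h incubation. In the 384-well format, cells are seeded onto 11 pre-dispensed concentrations (final DMSO <1%) and read after 3 h resazurin.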

SMILES | IC50 (MTH1) [nM] | IC50 (cancer cell) [nM]
Cc1c(Cl)cccc1-c1cc(NCCNc2ccc3c(c2)OCC(=O)N3)nc(N)n1 [Example 91, 7-[2-[[2-amino-6-(3-chloro-2-methyl-phenyl)pyrimidin-4-yl]amino]ethylamino]-4H-1,4-benzoxazin-3-one] | < 200 | < 500
Cc1c(Cl)cccc1-c1cc(NCCNc2ccc3c(c2)N(C)C(=O)CO3)nc(N)n1 [Example 92, 6-[2-[[2-amino-6-(3-chloro-2-methyl-phenyl)pyrimidin-4-yl]amino]ethylamino]-4-methyl-1,4-benzoxazin-3-one] | < 200 | < 500
Cc1c(Cl)cccc1-c1cc(NCCc2cccc([N+](=O)[O-])c2)nc(N)n1 [Example 95, 6-(3-chloro-2-methylphenyl)-4-N-[2-(3-nitrophenyl)ethyl]pyrimidine-2,4-diamine] | < 200 | < 500
Cc1cccc(-c2cc(NCCc3ccc(S(N)(=O)=O)cc3)nc(N)n2)c1Cl [Example 96, 4-[2-[[2-amino-6-(2-chloro-3-methyl-phenyl)pyrimidin-4-yl]amino]ethyl]benzenesulfonamide] | < 200 | < 500
Nc1nc(NCCc2ccc(S(N)(=O)=O)cc2)cc(-c2cc(Cl)cc(Cl)c2Cl)n1 [Example 97, 4-[2-[[2-amino-6-(2,3,5-trichlorophenyl)pyrimidin-4-yl]amino]ethyl]benzenesulfonamide] | < 200 | < 500
Cc1nc2ccc(NCCNc3cc(-c4cccc(Cl)c4C)nc(N)n3)cc2s1 [Example 101, 6-(3-chloro-2-methyl-phenyl)-N4-[2-[(2-methyl-1,3-benzothiazol-6-yl)amino]ethyl]pyrimidine-2,4-diamine] | < 200 | < 500
CC1(C)Nc2cc(NCCNc3cc(-c4cccc(Cl)c4)nc(N)n3)ccc2OC1=O [Example 103, 6-[2-[[2-amino-6-(3-chlorophenyl)pyrimidin-4-yl]amino]ethylamino]-3,3-dimethyl-4H-1,4-benzoxazin-2-one] | < 200 | < 500
CC1(C)Nc2cc(NCCNc3cc(-c4cccc(Cl)c4Cl)nc(N)n3)ccc2OC1=O [Example 104, 6-[2-[[2-amino-6-(2,3-dichlorophenyl)pyrimidin-4-yl]amino]ethylamino]-3,3-dimethyl-4H-1,4-benzoxazin-2-one] | < 200 | < 500
Cc1c(Cl)cccc1-c1cc(NCCNc2cccc(S(C)(=O)=O)c2)nc(N)n1 [Example 105, 6-(3-chloro-2-methyl-phenyl)-N4-[2-(3-methylsulfonylanilino)ethyl]pyrimidine-2,4-diamine] | < 200 | < 500
CS(=O)(=O)c1cccc(NCCNc2cc(-c3cccc(Cl)c3Cl)nc(N)n2)c1 [Example 106, 6-(2,3-dichlorophenyl)-N4-[2-(3-methylsulfonylanilino)ethyl]pyrimidine-2,4-diamine] | < 200 | < 500
Cc1c(Cl)cccc1-c1cc(NCCc2ccc(C(N)=NO)cc2)nc(N)n1 [Example 107, 4-[2-[[2-amino-6-(3-chloro-2-methyl-phenyl)pyrimidin-4-yl]amino]ethyl]-N′-hydroxy-benzamidine] | < 200 | < 500
Cc1c(Cl)cccc1-c1cc(NCCc2ccc(C(=O)N3CCOCC3)cc2)nc(N)n1 [Example 108, [4-[2-[[2-amino-6-(3-chloro-2-methyl-phenyl)pyrimidin-4-yl]amino]ethyl]phenyl]-morpholino-methanone] | < 200 | < 500
Cc1c(Cl)cc(Cl)cc1-c1cc(NCCc2ccc(C(=O)N3CCOCC3)cc2)nc(N)n1 [Example 109, [4-[2-[[2-amino-6-(3,5-dichloro-2-methyl-phenyl)pyrimidin-4-yl]amino]ethyl]phenyl]-morpholino-methanone] | < 200 | < 500
Cc1c(Cl)cccc1-c1cc(NCCCNc2cccc(S(C)(=O)=O)c2)nc(N)n1 [Example 110, 6-(3-chloro-2-methyl-phenyl)-N4-[3-(3-methylsulfonylanilino)propyl]pyrimidine-2,4-diamine] | < 200 | < 500

The remaining lines, values ahead:

IC50 (MTH1) [nM] | IC50 (cancer cell) [nM] | SMILES
< 200 | < 500 | Cc1c(Cl)cccc1-c1cc(NCCc2ccc(C(N)=S)cc2)nc(N)n1 [Example 111, 4-[2-[[2-amino-6-(3-chloro-2-methyl-phenyl)pyrimidin-4-yl]amino]ethyl]benzenecarbothioamide]
< 200 | < 500 | CCNC(=O)Nc1ccc(CCNc2cc(-c3cccc(Cl)c3C)nc(N)n2)cc1 [Example 112, 1-[4-[2-[[2-amino-6-(3-chloro-2-methyl-phenyl)pyrimidin-4-yl]amino]ethyl]phenyl]-3-ethyl-urea]
< 200 | < 500 | Cc1c(Cl)cccc1-c1cc(NCCc2ccc(NC(=O)NC(C)(C)C)cc2)nc(N)n1 [Example 113, 1-[4-[2-[[2-amino-6-(3-chloro-2-methyl-phenyl)pyrimidin-4-yl]amino]ethyl]phenyl]-3-tert-butyl-urea]
< 200 | < 500 | C=CCNC(=O)Nc1ccc(CCNc2cc(-c3cccc(Cl)c3C)nc(N)n2)cc1 [Example 114, 1-allyl-3-[4-[2-[[2-amino-6-(3-chloro-2-methyl-phenyl)pyrimidin-4-yl]amino]ethyl]phenyl]urea]
< 200 | < 500 | CCOC(=O)NC(=O)Nc1ccc(CCNc2cc(-c3cccc(Cl)c3C)nc(N)n2)cc1 [Example 115, ethyl N-[[4-[2-[[2-amino-6-(3-chloro-2-methyl-phenyl)pyrimidin-4-yl]amino]ethyl]phenyl]carbamoyl]carbamate]
< 200 | < 500 | CCC(C)NC(=O)Nc1ccc(CCNc2cc(-c3cccc(Cl)c3C)nc(N)n2)cc1 (stereo not drawn) [Example 116, 1-[4-[2-[[2-amino-6-(3-chloro-2-methyl-phenyl)pyrimidin-4-yl]amino]ethyl]phenyl]-3-sec-butyl-urea]
< 200 | < 500 | CCNC(=S)Nc1ccc(CCNc2cc(-c3cccc(Cl)c3C)nc(N)n2)cc1 [Example 117, 1-[4-[2-[[2-amino-6-(3-chloro-2-methyl-phenyl)pyrimidin-4-yl]amino]ethyl]phenyl]-3-ethyl-thiourea]
< 200 | < 500 | Cc1c(Cl)cccc1-c1cc(NCCc2ccc(NC(=O)N3CCOCC3)cc2)nc(N)n1 [Example 118, N-[4-[2-[[2-amino-6-(3-chloro-2-methyl-phenyl)pyrimidin-4-yl]amino]ethyl]phenyl]morpholine-4-carboxamide]
< 200 | < 500 | Cc1c(Cl)cccc1-c1cc(NCCc2ccc(NC(=O)OC(C)C)cc2)nc(N)n1 [Example 119, isopropyl N-[4-[2-[[2-amino-6-(3-chloro-2-methyl-phenyl)pyrimidin-4-yl]amino]ethyl]phenyl]carbamate]
< 200 | < 500 | Cc1c(Cl)cccc1-c1cc(NCCc2ccc(NC(=O)OCC(C)C)cc2)nc(N)n1 [Example 120, isobutyl N-[4-[2-[[2-amino-6-(3-chloro-2-methyl-phenyl)pyrimidin-4-yl]amino]ethyl]phenyl]carbamate]
< 200 | < 500 | Cc1c(Cl)cccc1-c1cc(NCCc2ccc(NC(=O)OCC(C)(C)C)cc2)nc(N)n1 [Example 121, 2,2-dimethylpropyl N-[4-[2-[[2-amino-6-(3-chloro-2-methyl-phenyl)pyrimidin-4-yl]amino]ethyl]phenyl]carbamate]
< 200 | < 500 | COCCOC(=O)Nc1ccc(CCNc2cc(-c3cccc(Cl)c3C)nc(N)n2)cc1 [Example 122, 2-methoxyethyl N-[4-[2-[[2-amino-6-(3-chloro-2-methyl-phenyl)pyrimidin-4-yl]amino]ethyl]phenyl]carbamate]
< 200 | < 500 | CC#CCOC(=O)Nc1ccc(CCNc2cc(-c3cccc(Cl)c3C)nc(N)n2)cc1 [Example 123, but-2-ynyl N-[4-[2-[[2-amino-6-(3-chloro-2-methyl-phenyl)pyrimidin-4-yl]amino]ethyl]phenyl]carbamate]
< 200 | < 500 | Cc1c(Cl)cccc1-c1cc(NCCc2ccc(NC#N)cc2)nc(N)n1 [Example 124, [4-[2-[[2-amino-6-(3-chloro-2-methyl-phenyl)pyrimidin-4-yl]amino]ethyl]phenyl]cyanamide]
< 200 | < 500 | Cc1cccc(-c2cc(NCCNc3ccnc(N)n3)nc(N)n2)c1C [Example 126, 4-N-(2-{[2-amino-6-(2,3-dimethylphenyl)pyrimidin-4-yl]amino}ethyl)pyrimidine-2,4-diamine]
< 200 | < 500 | Cc1cccc(-c2cc(NCCNc3ccc(N)nc3)nc(N)n2)c1C [Example 127, 5-N-(2-{[2-amino-6-(2,3-dimethylphenyl)pyrimidin-4-yl]amino}ethyl)pyridine-2,5-diamine]
< 200 | < 500 | Cc1cccc(-c2cc(NCCNc3ccc(N)cc3F)nc(N)n2)c1C [Example 128, 1-N-(2-{[2-amino-6-(2,3-dimethylphenyl)pyrimidin-4-yl]amino}ethyl)-2-fluorobenzene-1,4-diamine]
< 200 | < 500 | Cc1c(Cl)cccc1-c1cc(NCCCNc2ccc(C(N)=O)cc2)nc(N)n1 [Example 143, 4-[3-[[2-amino-6-(3-chloro-2-methyl-phenyl)pyrimidin-4-yl]amino]propylamino]benzamide]
< 200 | < 500 | CNS(=O)(=O)c1ccc(NCCCNc2cc(-c3cccc(Cl)c3C)nc(N)n2)cc1 [Example 144, 4-[3-[[2-amino-6-(3-chloro-2-methyl-phenyl)pyrimidin-4-yl]amino]propylamino]-N-methyl-benzenesulfonamide]
